In US20250326771A1, “PIPERAZINE DERIVATIVES USEFUL IN HIV THERAPY” (VIIV HEALTHCARE COMPANY, priority 2022, published 2025):
Read-outs that look alike come from different tables or passages of the source.

Tests used:
cIAP1-BIR2 = cIAP1-BIR2 (Homo sapiens (Human), UniProt Q13490); assay: BIR binding assay (FRET competition), cIAP1 BIR2
Method in brief: (§1)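 Each domain is run separately at its own level: 50 nM cIAP1-BIR3, 100 nM XIAP-BIR3, 325 nM for cIAP1-BIR2 or cIAP2-BIR2. Probe is a 200 nM fluorescent SMAC peptide, and the value is IC50 from FRET competition.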

[1] = tested on: Jurkat HIV-luciferase clones; assay: Jurkat latency reversal assay; format: cell-based; conditions: Homo sapiens, 48 h; Jurkat latency reversal assay potency; read-out: Jurkat pEC50 (converted)
Method in brief: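 Compounds are titrated 3-fold over 14 points from 10 μM in duplicate at 0.5% DMSO. Clones C16, 115 and N6, grown with 500 nM EFV, are co-incubated for 48 h at 37° C. Virally driven luciferase is read by luminescence, and EC50 and maximal percent activation versus vehicle come from a four-parameter model.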

cIAP2-BIR2 = cIAP2-BIR2 (Homo sapiens (Human), UniProt Q13489); assay: BIR binding assay (FRET competition), cIAP2 BIR2
Method in brief: as §1

XIAP-BIR3 = XIAP-BIR3 (Homo sapiens (Human), UniProt P98170); assay: BIR binding assay (FRET competition), XIAP BIR3; conditions: for XIAP BIR3 vs BIR2 separation window: fold separation (FS) for XIAP
Method in brief: as §1

cIAP2-BIR3 = cIAP2-BIR3 (Homo sapiens (Human), UniProt Q13489); assay: BIR binding assay (FRET competition), cIAP2 BIR3; conditions: for cIAP2 BIR3 vs BIR2 separation window: fold separation (FS) for cIAP2
cIAP1-BIR3 = cIAP1-BIR3 (Homo sapiens (Human), UniProt Q13490); assay: BIR binding assay (FRET competition), cIAP1 BIR3; conditions: for cIAP1 BIR3 vs BIR2 separation window: fold separation (FS) for cIAP1
Method in brief: as §1

XIAP-BIR2 = XIAP-BIR2 (Homo sapiens (Human), UniProt P98170); assay: BIR binding assay (FRET competition), XIAP BIR2
Method: The BIR domain binding assays are FRET based competition assays that utilize His-tagged versions of each of the BIR2 and BIR3 domains from cIAP1, cIAP2, and XIAP (each domain assayed separately) each at a custom optimal concentration and a probe, 200 nM SMAC/DIABLO peptide AVPIAQKSE labelled with AlexaFluor647 (part #crb 1110326h, Discovery Peptides). The assay is conducted in 50 mM HEPES, […], 1 mM CHAPS, 5% Glycerol, 1 mM DTT, in dI water with a final pH of 7.4 and final volume of 20 uL. Final protein domain concentrations are: 50 nM cIAP1-BIR3 (Part #APT-11-370 Reaction Biology), 100 nM XIAP-BIR3 (Part #APT-11-351 Reaction Biology), 200 nM XIAP-BIR2 (Part #APT-11-470 Reaction Biology), 325 nM cIAP2-BIR2 (Part #APT-11-489 Reaction Biology), 50 nM cIAP2-BIR3 (Part #APT-11-372 Reaction Biology), 325 nM cIAP1-BIR2 (Part #APT-11-487 Reaction Biology). Compounds were plated using a HP Tecan D300 printer in a final total volume of 202 nl and DMSO concentration normalized across the 15-point, 3-fold dilution series. Peptide and probe were prepared at 2× relative to the concentrations above in binding buffer, 10 uL added to the prepared compound plates, and incubated for 60 minutes. LANCE Eu-W1024 (part #AD0401 Perkin Elmer #, vendor) was prepared at 2× concentration in binding buffer for final concentration of 2 nM, 10 uL added to each well, and plates incubated for 30 minutes. Plates were read on an ENVISION multifunction plate reader with […] laser excitation to obtain the 615 nm/665 nm emission ratio as indicative of probe:protein proximity. Data was analyzed using GraphPad PRISM and curves fit using log(inhibitor) vs. response—Variable slope (four […] method to obtain IC50 and pIC50 values.

[2] = FRET competition binding, read-out: XIAP BIR2 (pIC50) (converted)
[3] = FRET competition, read-out: XIAP BIR2 (pIC50) (converted)

XIAP-BIR3, sequence (P98170 241-356): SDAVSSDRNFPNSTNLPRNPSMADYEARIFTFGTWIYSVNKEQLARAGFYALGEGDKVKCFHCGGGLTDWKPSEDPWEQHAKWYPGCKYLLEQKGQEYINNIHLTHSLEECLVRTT
cIAP2-BIR3, sequence (Q13489 238-349): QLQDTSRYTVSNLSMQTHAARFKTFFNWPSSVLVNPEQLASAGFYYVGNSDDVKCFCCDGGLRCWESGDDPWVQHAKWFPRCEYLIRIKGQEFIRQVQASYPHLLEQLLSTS
cIAP2-BIR2, sequence (Q13489 158-242): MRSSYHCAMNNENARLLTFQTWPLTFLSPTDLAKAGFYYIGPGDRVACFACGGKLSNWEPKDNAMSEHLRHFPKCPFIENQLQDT
XIAP-BIR2, sequence (P98170 124-240): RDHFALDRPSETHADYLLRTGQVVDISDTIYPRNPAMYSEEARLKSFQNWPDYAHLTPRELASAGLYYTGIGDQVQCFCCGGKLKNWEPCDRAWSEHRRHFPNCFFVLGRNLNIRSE
cIAP1-BIR2, sequence (Q13490 173-257): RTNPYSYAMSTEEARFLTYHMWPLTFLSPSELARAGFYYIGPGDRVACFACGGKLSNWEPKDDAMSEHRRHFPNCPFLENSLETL
cIAP1-BIR3, sequence (Q13490 253-363): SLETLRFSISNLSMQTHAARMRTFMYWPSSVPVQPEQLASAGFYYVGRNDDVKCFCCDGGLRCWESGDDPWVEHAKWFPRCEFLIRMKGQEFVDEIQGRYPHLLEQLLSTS

Compound | IC50 (cIAP1-BIR2) | EC50 [1] | IC50 (cIAP2-BIR2) | IC50 (XIAP-BIR3) | XIAP BIR3 vs BIR2 separation window (XIAP-BIR3) | IC50 (cIAP2-BIR3) | cIAP2 BIR3 vs BIR2 separation window (cIAP2-BIR3) | IC50 (cIAP1-BIR3) | cIAP1 BIR3 vs BIR2 separation window (cIAP1-BIR3) | IC50 (XIAP-BIR2; [2]) | IC50 (XIAP-BIR2; [3]) | IC50 (XIAP-BIR2) | XIAP BIR2 (pIC50) (XIAP-BIR2; FRET competition binding)
C[C@@H]1CN(CC(=O)N2CC(C)(C)c3[nH]c(=O)c(Cc4ccc(F)cc4)cc32)[C@@H](CN2CCN(C(=O)COCCOCCOCC(=O)N3CCN(C[C@H]4CN[C@H](C)CN4CC(=O)N4CC(C)(C)c5[nH]c(=O)c(Cc6ccc(F)cc6)cc54)[C@H](C)C3)C[C@H]2C)CN1 (stereo in doubt) [Example 6, 1,1′-(2,2′-((3R,3′R,6R,6′R)-(((2R,2′R)-(2,2′-((oxybis(ethane-2,1-diyl))bis(oxy))bis(acetyl))bis(2-methylpiperazine-4,1-diyl))bis(methylene))bis(3-methylpiperazine-6,1-diyl))bis(acetyl))bis(6-(4-fluorobenzyl)-3,3-dimethyl-1,2,3,4-tetrahydro-5H-pyrrolo[3,2-b]pyridin-5-one)] | 22.4 to 1000 nM | 63.1 to 316 nM | 22.4 to 1000 nM | 1.38 to 7.94 nM | ++++ (FS>10,000) | 1.38 to 7.94 nM | +++ (10,000>FS>1,000) | 1.38 to 7.94 nM | +++ (10,000>FS>1,000) | 10000 to 51300 nM | – | – | –
C[C@@H]1CN(CC(=O)N2CC(C)(C)c3ncc(Oc4ccc(F)cc4)cc32)[C@@H](CN2CCO[C@H](COc3cccc(OC[C@@H]4CN(C[C@H]5CN[C@H](C)CN5CC(=O)N5CC(C)(C)c6ncc(Oc7ccc(F)cc7)cc65)CCO4)c3)C2)CN1 [Compound 142, 1-[6-(4-fluorophenoxy)-3,3-dimethyl-2H-pyrrolo[3,2-b]pyridin-1-yl]-2-[(2R,5R)-2-[[(2S)-2-[[3-[[(2S)-4-[[(2R,5R)-1-[2-[6-(4-fluorophenoxy)-3,3-dimethyl-2H-pyrrolo[3,2-b]pyridin-1-yl]-2-oxo-ethyl]-5-methyl-piperazin-2-yl]methyl]morpholin-2-yl]methoxy]phenoxy]methyl]morpholin-4-yl]methyl]-5-methyl-piperazin-1-yl]ethanone] | 10000 to 51300 nM | 12.6 to 63.1 nM | – | 31.6 to 501 nM | +++ (10,000>FS>1,000) | 15.8 to 31.6 nM | – | 15.8 to 31.6 nM | +++ (10,000>FS>1,000) | – | 10000 to 51300 nM | – | –
C[C@@H]1CN(CC(=O)N2CC(C)(C)c3[nH]c(=O)c(Oc4ccc(Cl)cc4)cc32)[C@@H](CN2CCO[C@H](C(=O)NCc3ccc(CNC(=O)[C@@H]4CN(C[C@H]5CN[C@H](C)CN5CC(=O)N5CC(C)(C)c6[nH]c(=O)c(Oc7ccc(Cl)cc7)cc65)CCO4)cc3)C2)CN1 [Compound 182, (2S,2′S)-N,N′-(1,4-phenylenebis(methylene)) bis(4-(((2R,5R)-1-(2-(6-(4-chlorophenoxy)-3,3-dimethyl-5-oxo-2,3,4,5-tetrahydro-1H-pyrrolo[3,2-b]pyridin-1-yl)-2-oxoethyl)-5-methylpiperazin-2-yl)methyl)morpholine-2-carboxamide)] | – | 63.1 to 316 nM | 3160 to 10000 nM | 31.6 to 501 nM | +++ (10,000>FS>1,000) | 1.38 to 7.94 nM | +++ (10,000>FS>1,000) | 7.94 to 15.8 nM | – | – | 10000 to 51300 nM | – | –
C[C@@H]1CN(CC(=O)N2CC(C)(C)c3[nH]c(=O)c(Cc4ccc(F)cc4)cc32)[C@@H](CN2CCO[C@H](COc3ccc(Oc4cccc(Oc5ccc(OC[C@@H]6CN(C[C@H]7CN[C@H](C)CN7CC(=O)N7CC(C)(C)c8[nH]c(=O)c(Cc9ccc(F)cc9)cc87)CCO6)cc5)c4)cc3)C2)CN1 [Example 60, 1,1′-(2,2′-((3R,3′R,6R,6′R)-(((2S,2'S)-((((1,3-phenylenebis(oxy))bis(4,1-phenylene))bis(oxy))bis(methylene))bis(morpholine-2,4-diyl))bis(methylene))bis(3-methylpiperazine-6,1-diyl))bis(acetyl))bis(6-(4-fluorobenzyl)-3,3-dimethyl-1,2,3,4-tetrahydro-5H-pyrrolo[3,2-b]pyridin-5-one)] | – | 12.6 to 63.1 nM | 10000 to 51300 nM | 31.6 to 501 nM | ++++ (FS>10,000) | 15.8 to 31.6 nM | ++++ (FS>10,000) | 31.6 to 501 nM | – | – | – | 10000 to 51300 nM | –
C[C@@H]1CN(CC(=O)N2CC(C)(C)c3[nH]c(=O)c(Cc4ccc(F)cc4)cc32)[C@@H](CN2CCO[C@H](COc3ccccc3Cc3ccccc3OC[C@@H]3CN(C[C@H]4CN[C@H](C)CN4CC(=O)N4CC(C)(C)c5[nH]c(=O)c(Cc6ccc(F)cc6)cc54)CCO3)C2)CN1 [Example 66, 1,1′-(2,2′-((3R,3′R,6R,6′R)-(((2S,2'S)-(((methylenebis(2,1-phenylene))bis(oxy))bis(methylene))bis(morpholine-2,4-diyl))bis(methylene))bis(3-methylpiperazine-6,1-diyl))bis(acetyl))bis(6-(4-fluorobenzyl)-3,3-dimethyl-1,2,3,4-tetrahydro-5H-pyrrolo[3,2-b]pyridin-5-one)] | – | 0.49 to 12.6 nM | – | 15.8 to 31.6 nM | ++++ (FS>10,000) | 7.94 to 15.8 nM | – | 15.8 to 31.6 nM | – | 10000 to 51300 nM | – | – | –
C[C@@H]1CN(CC(=O)N2CC(C)(C)c3[nH]c(=O)c(Cc4ccc(F)cc4)cc32)[C@@H](CN2CCO[C@H](COc3ccc(-c4ccccc4)c(OC[C@@H]4CN(C[C@H]5CN[C@H](C)CN5CC(=O)N5CC(C)(C)c6[nH]c(=O)c(Cc7ccc(F)cc7)cc65)CCO4)c3)C2)CN1 [Example 78, 1,1′-(2,2′-((3R,3′R,6R,6′R)-(((2S,2'S)—(([1,1′-biphenyl]-2,4-diylbis(oxy))bis(methylene))bis(morpholine-2,4-diyl))bis(methylene))bis(3-methylpiperazine-6,1-diyl))bis(acetyl))bis(6-(4-fluorobenzyl)-3,3-dimethyl-1,2,3,4-tetrahydro-5H-pyrrolo[3,2-b]pyridin-5-one)] | – | 12.6 to 63.1 nM | – | 7.94 to 15.8 nM | +++ (10,000>FS>1,000) | 1.38 to 7.94 nM | – | 1.38 to 7.94 nM | – | – | – | – | ++ (5.00<pIC50<=5.50)
C[C@@H]1CN(CC(=O)N2CC(C)(C)c3[nH]c(=O)c(Cc4ccc(F)cc4)cc32)[C@@H](CN2CCC(C(F)(F)COc3cccc(OCC(F)(F)C4CCN(C[C@H]5CN[C@H](C)CN5CC(=O)N5CC(C)(C)c6[nH]c(=O)c(Cc7ccc(F)cc7)cc65)CC4)c3)CC2)CN1 [Example 110, 1,1′-(2,2′-((3R,3′R,6R,6′R)-((((1,3-phenylenebis(oxy))bis(1,1-difluoroethane-2,1-diyl))bis(piperidine-4,1-diyl))bis(methylene))bis(3-methylpiperazine-6,1-diyl))bis(acetyl))bis(6-(4-fluorobenzyl)-3,3-dimethyl-1,2,3,4-tetrahydro-5H-pyrrolo[3,2-b]pyridin-5-one)] | – | 0.49 to 12.6 nM | – | 15.8 to 31.6 nM | ++++ (FS>10,000) | 15.8 to 31.6 nM | – | 15.8 to 31.6 nM | – | 10000 to 51300 nM | – | – | –
C[C@@H]1CN(CC(=O)N2CC(C)(C)c3[nH]c(=O)c(Cc4ccc(F)cc4)cc32)[C@@H](CN2CCO[C@H](C(=O)NCCCCCCCCCCNC(=O)[C@@H]3CN(C[C@H]4CN[C@H](C)CN4CC(=O)N4CC(C)(C)c5[nH]c(=O)c(Cc6ccc(F)cc6)cc54)CCO3)C2)CN1 [Example 120, (2S,2'S)-N,N′-(decane-1,10-diyl)bis(4-(((2R,5R)-1-(2-(6-(4-fluorobenzyl)-3,3-dimethyl-5-oxo-2,3,4,5-tetrahydro-1H-pyrrolo[3,2-b]pyridin-1-yl)-2-oxoethyl)-5-methylpiperazin-2-yl)methyl)morpholine-2-carboxamide)] | 1000 to 3160 nM | 63.1 to 316 nM | 1000 to 3160 nM | 15.8 to 31.6 nM | – | 7.94 to 15.8 nM | +++ (10,000>FS>1,000) | 7.94 to 15.8 nM | +++ (10,000>FS>1,000) | – | – | – | –
